Laboratory results from the NIST ThermoML archive (doi:10.1021/je049909d).

Legend:
[1] = Liquid; for mass density / speed of sound: 298.15 K, 101.33 kPa; for speed of sound: Sing-around technique in a fixed-path interferometer
[2] = refractive index (Na D-line) (dimensionless); details: 298.15 K; 101.33 kPa; Liquid; Standard Abbe refractometry
[3] = xn = mol fraction of the nth substance listed; details: 298.15 K, 101.3 kPa, Liquid; for speed of sound: Sing-around technique in a fixed-path interferometer
[4] = refractive index (Na D-line) (dimensionless); xn = mol fraction of the nth substance listed; details: 298.15 K, 101.3 kPa, Liquid, Standard Abbe refractometry

CO [methanol]
Details	mass density [kg/m3]	refractive index	speed of sound [m/s]
[1]	786.56	–	1101.8
[2]	–	1.32634	–

Details	vapor or sublimation pressure [kPa]
[1], 337.9 K	101.3

C=COC(C)=O [vinyl acetate]
Details	mass density [kg/m3]	refractive index	speed of sound [m/s]
[1]	925.59	–	1115.6
[2]	–	1.39253	–

Details	vapor or sublimation pressure [kPa]
[1], 346.1 K	101.3

C=COC(=O)CC [vinyl propanoate]
Details	mass density [kg/m3]	refractive index	speed of sound [m/s]
[1]	909.69	–	1133.9
[2]	–	1.40153	–

[1], Ebulliometric method (Recirculating still)
Details	vapor or sublimation pressure [kPa]
320.7 K	17.5
325.3 K	21.5
329.4 K	25.5
333 K	29.5
336.3 K	33.5
339.3 K	37.5
341.9 K	41.5
344.4 K	45.5
346.8 K	49.5
348.9 K	53.5
350.9 K	57.5
352.8 K	61.5
354.7 K	65.5
356.3 K	69.5
358 K	73.5
359.6 K	77.5
361.1 K	81.5
362.6 K	85.5
364 K	89.5
365.4 K	93.5
366.7 K	97.5
368 K	101.3
368.1 K	101.3

C=COC(=O)CC [vinyl propanoate] + C=COC(C)=O
Details	mass density, [3] [kg/m3]	refractive index, [4]	speed of sound, [3] [m/s]
x2 = 0.05	910.31	1.40114	1132.8
x2 = 0.102	911.01	1.4007	1131.8
x2 = 0.167	911.87	1.40017	1130.5
x2 = 0.207	912.4	1.39986	1129.7
x2 = 0.264	913.2	1.39937	1128.6
x2 = 0.297	913.66	1.39906	1128
x2 = 0.354	914.5	1.3985	1126.9
x2 = 0.403	915.25	1.39817	1126
x2 = 0.466	916.22	1.39762	1124.9
x2 = 0.504	916.8	1.3973	1124.2
x2 = 0.545	917.48	1.3969	1123.4
x2 = 0.601	918.39	1.3964	1122.4
x2 = 0.65	919.18	1.39591	1121.6
x2 = 0.696	919.96	1.39554	1120.8
x2 = 0.753	920.95	1.39493	1119.8
x2 = 0.8	921.79	1.39456	1119
x2 = 0.839	922.51	1.3941	1118.3
x2 = 0.901	923.67	1.39358	1117.2
x2 = 0.955	924.72	1.39295	1116.3

C=COC(=O)CC [vinyl propanoate] + CO
Details	mass density, [3] [kg/m3]	refractive index, [4]	speed of sound, [3] [m/s]
x2 = 0.05	907.45	1.40022	1132.9
x2 = 0.101	905	1.39881	1131.7
x2 = 0.168	901.52	1.3968	1130.2
x2 = 0.198	899.81	1.39573	1129.5
x2 = 0.242	897.25	1.39416	1128.4
x2 = 0.311	892.66	1.39141	1126.7
x2 = 0.337	890.92	1.39039	1126
x2 = 0.39	886.94	1.38789	1124.6
x2 = 0.452	881.8	1.38474	1122.8
x2 = 0.526	874.78	1.38044	1120.5
x2 = 0.547	872.66	1.37911	1119.8
x2 = 0.597	867.2	1.37583	1118
x2 = 0.657	859.7	1.37115	1115.9
x2 = 0.708	852.65	1.36685	1114.1
x2 = 0.748	846.29	1.36283	1112.6
x2 = 0.8	837.26	1.35725	1110.7
x2 = 0.85	827.36	1.3512	1108.7
x2 = 0.899	816.21	1.34444	1106.5
x2 = 0.949	803.01	1.33649	1104.9
